The source of these data is ChEMBL document CHEMBL3872201, “Synthesis and antiproliferative activity of a natural like glycoconjugate polycyclic compound” (2016).

The nature of this assay: Cytotoxicity against human MDA-MB-231 cells assessed as inhibition of cell viability at 5 uM after 48 hrs by MTT assay relative to control. In kind it is functional. The following applies: MDA-MB-231, 48 h. For orientation: Tetrazolium dyes change colour on reduction, which living cells bring about.

For orientation: inhibition means how much of the control response was suppressed. `C=C1c2c(C)nn(-c3ccc(OC)cc3)c2N(C)C23CC1C1(C)c4c(C)nn(-c5ccc(OC)cc5)c4N(C)C(C)(CC12)C3` (stereo unspecified): the inhibition at 5 µM was 26%.
